Measurements taken from ChEMBL document CHEMBL1155500, “The metabolites of mangrove endophytic fungus Zh6-B1 from the South China Sea” (2010).

Assay: Cytotoxicity against human KV/MDR cells at 100 uM after 48 hrs by MTT assay
Format: functional
Conditions: read-out: GI

SMILES | inhibition of growth at 100 µM [%]
C[C@@H]1C[C@H](O)CCCc2cc(O)cc(O)c2C(=O)O1 | 42.4
C[C@@H]1C[C@@H](O)CCCc2cc(O)cc(O)c2C(=O)O1 | 41.6
